Laboratory results: patent publication US20160368898A1, “2-PYRIDYLOXY-4-METHYL OREXIN RECEPTOR ANTAGONISTS” (MERCK SHARP & DOHME CORP., priority 2013, published 2016)

Assays:
[1] = biological target: T1, human orexin-2 receptor (hOX2R) (Homo sapiens, UniProt O43614); test: FLIPR Ca2+ Flux Assay, CHO cells expressing the human orexin-2 receptor; format: cell-based; settings: agonist 70 pM Ala-6,12 human orexin-A
T1 construct: expressed in transfected cells; host or cells: CHO cells (grown under G418)
T1 sequence (O43614 1-444): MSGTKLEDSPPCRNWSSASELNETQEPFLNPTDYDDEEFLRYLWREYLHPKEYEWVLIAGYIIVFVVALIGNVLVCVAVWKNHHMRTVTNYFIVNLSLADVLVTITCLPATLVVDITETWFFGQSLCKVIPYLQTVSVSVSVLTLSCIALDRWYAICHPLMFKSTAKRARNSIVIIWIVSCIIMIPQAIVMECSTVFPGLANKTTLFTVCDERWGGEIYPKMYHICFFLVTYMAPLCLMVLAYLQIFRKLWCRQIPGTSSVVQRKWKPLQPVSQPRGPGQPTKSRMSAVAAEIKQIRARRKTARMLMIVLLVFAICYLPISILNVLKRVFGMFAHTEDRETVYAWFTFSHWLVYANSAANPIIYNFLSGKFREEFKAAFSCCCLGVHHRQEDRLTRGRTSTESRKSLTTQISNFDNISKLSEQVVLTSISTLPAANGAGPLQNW
Description: The utility of the compounds in accordance with the present invention as orexin receptor OX1R and/or OX2R antagonists may be readily determined without undue experimentation by methodology well known in the art, including the “FLIPR Ca^2+ Flux Assay” (Okumura et al., Biochem. Biophys. Res. Comm. 280:976-981, 2001). In a typical experiment the OX1 and OX2 receptor antagonistic activity of the compounds of the present invention was determined in accordance with the following experimental method. For intracellular calcium measurements, Chinese hamster ovary (CHO) cells expressing the rat orexin-1 receptor or the human orexin-2 receptor, are grown in Iscove's modified DMEM containing 2 mM L-glutamine, […], 1% hypoxanthine-thymidine supplement, 100 U/ml penicillin, 100 μg/ml streptomycin and 10% heat-inactivated fetal calf serum (FCS). The cells are seeded at 20,000 cells/well into Becton-Dickinson black 384-well clear bottom sterile plates coated with poly-D-lysine. All reagents were from GIBCO-Invitrogen Corp. The seeded plates are incubated overnight at 37° C. and 5% CO2. Ala-6,12 human orexin-A as the agonist is prepared as a 1 mM stock solution in 1% bovine serum albumin (BSA) and diluted in assay buffer (HBSS containing 20 mM HEPES, 0.1% BSA and 2.5 mM probenecid, pH7.4) for use in the assay at a final concentration of 70 pM. Test compounds are prepared as 10 mM stock solution in DMSO, then diluted in 384-well plates, first in DMSO, then assay buffer. On the day of the assay, cells are washed 3 times with 100 μl assay buffer and then incubated for 60 min (37° C., 5% CO2) in 60 μl assay buffer containing 1 μM Fluo-4AM ester, 0.02% pluronic acid, and 1% BSA. The dye loading solution is then aspirated and cells are washed 3 times with 100 μl assay buffer. 30 μl of that same buffer is left in each well. Within the Fluorescent Imaging Plate Reader (FLIPR, Molecular Devices), test compounds are added to the plate in a volume of 25 μl, incubated for 5 min and finally 25 μl of agonist is added. Fluorescence is measured for each well at 1 second intervals for 5 minutes and the height of each fluorescence peak is compared to the height of the fluorescence peak induced by 70 pM Ala-6,12 orexin-A with buffer in place of antagonist. For each antagonist, IC50 value (the concentration of compound needed to inhibit 50% of the agonist response) is determined. Alternatively, compound potency can be assessed by a radioligand binding assay (described in Bergman et. al. Bioorg. Med. Chem. Lett. 2008, 18, 1425-1430) in which the inhibition constant (Ki) is determined in membranes prepared from CHO cells expressing either the OX1 or OX2 receptor. The intrinsic orexin receptor antagonist activity of a compound which may be used in the present invention may be determined by these assays.

hOX1R = biological target: T2, hOX1R (Homo sapiens, UniProt O43613); test: FLIPR Ca2+ Flux Assay, CHO cells expressing the orexin-1 receptor; format: cell-based; settings: agonist 70 pM Ala-6,12 human orexin-A
T2 construct: expressed in transfected cells; host or cells: CHO cells (grown under G418)
T2 sequence (O43613 1-425): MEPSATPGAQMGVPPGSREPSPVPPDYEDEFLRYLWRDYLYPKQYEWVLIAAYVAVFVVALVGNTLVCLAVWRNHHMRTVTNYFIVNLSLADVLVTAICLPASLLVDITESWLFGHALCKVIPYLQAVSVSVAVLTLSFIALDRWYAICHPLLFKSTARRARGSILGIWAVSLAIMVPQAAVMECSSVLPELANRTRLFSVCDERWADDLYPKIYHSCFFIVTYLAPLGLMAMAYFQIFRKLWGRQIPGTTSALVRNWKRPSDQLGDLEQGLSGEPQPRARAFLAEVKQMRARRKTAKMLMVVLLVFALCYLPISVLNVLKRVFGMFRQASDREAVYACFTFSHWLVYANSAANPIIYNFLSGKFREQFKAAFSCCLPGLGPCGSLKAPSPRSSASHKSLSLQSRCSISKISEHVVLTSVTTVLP

Structure (SMILES) | IC50 [1] [nM] | IC50 (hOX1R) [nM]
Cc1ccnc(O[C@@H]2CC[C@@H](C)N(C(=O)c3nccnc3-c3ccccn3)C2)c1 [Example 16, 2-({(2R,5R)-2-methyl-5-[(4-methylpyridin-2-yl)oxy]piperidin-1-yl}carbonyl)-3-pyridin-2-ylpyrazine] | 40 | 3100
Cc1ccnc(O[C@@H]2CC[C@@H](C)N(C(=O)c3ccccc3-c3ncccn3)C2)c1 [Example 19, ((2R,5R)-2-methyl-5-((4-methylpyridin-2-yl)oxy)piperidin-1-yl)(2-(pyrimidin-2-yl)phenyl)methanone] | 27 | 980
Cc1ccnc(O[C@@H]2CC[C@@H](C)N(C(=O)c3ccccc3-n3ncnn3)C2)c1 [Example 2, (2-(2H-Tetrazol-2-yl)phenyl)((2R,5R)-2-methyl-5-((4-methylpyridin-2-yl)oxy)piperidin-1-y1)methanone] | 17 | 1480
Cc1ccnc(O[C@@H]2CC[C@@H](C)N(C(=O)c3ccc(F)cc3-n3nccn3)C2)c1 [Example 6, 2-{[(3R,6R)-1-{[4-fluoro-2-(2H-1,2,3-triazol-2-yl)phenyl]carbonyl}-6-methylpiperidin-3-yl]oxy}-4-methylpyridine] | 35 | 2290
Cc1ccnc(O[C@@H]2CC[C@@H](C)N(C(=O)c3ccc(Cl)cc3-n3nccn3)C2)c1 [Example 5, 2-{[(3R,6R)-1-{[4-chloro-2-(2H-1,2,3-triazol-2-yl)phenyl]carbonyl}-6-methylpiperidin-3-yl]oxy}-4-methylpyridine] | 29 | 1620
Cc1ccnc(O[C@@H]2CC[C@@H](C)N(C(=O)c3cc(F)ccc3-n3nccn3)C2)c1 [Example 11, 2-{[(3R,6R)-1-{[5-fluoro-2-(2H-1,2,3-triazol-2-yl)phenyl]carbonyl}-6-methylpiperidin-3-yl]oxy}-4-methylpyridine] | 32 | 1050
Cc1ccnc(O[C@@H]2CC[C@@H](C)N(C(=O)c3cccnc3-n3cc(C)cn3)C2)c1 [Example 17, 3-({(2R,5R)-2-methyl-5-[(4-methylpyridin-2-yl)oxy]piperidin-1-yl}carbonyl)-2-(4-methyl-1H-pyrazol-1-yl)pyridine] | 33 | 1750
Cc1ccnc(O[C@@H]2CC[C@@H](C)N(C(=O)c3ccc(C)cc3-n3nccn3)C2)c1 [Example 7, 4-methyl-2-{[(3R,6R)-6-methyl-1-{[4-methyl-2-(2H-1,2,3-triazol-2-yl)phenyl]carbonyl}piperidin-3-yl]oxy}pyridine] | 59 | 2340
COc1ccc(C(=O)N2C[C@H](Oc3cc(C)ccn3)CC[C@H]2C)c(-n2nccn2)n1 [Example 8, 6-methoxy-3-({(2R,5R)-2-methyl-5-[(4-methylpyridin-2-yl)oxy]piperidin-1-yl}carbonyl)-2-(2H-1,2,3-triazol-2-yl)pyridine] | 117 | > 10000
Cc1ccnc(O[C@@H]2CC[C@@H](C)N(C(=O)c3ccccc3C3(C#N)CC3)C2)c1 [Example 10, 1-[2-({(2R,5R)-2-methyl-5-[(4-methylpyridin-2-yl)oxy]piperidin-1-yl}carbonyl)phenyl]cyclopropanecarbonitrile] | 28 | 1210
Cc1ccnc(O[C@@H]2CC[C@@H](C)N(C(=O)c3ccccc3-n3nccn3)C2)c1 [Example 1, 4-Methyl-2-{[(3R,6R)-6-methyl-1-{[2-(2H-1,2,3-triazol-2-yl)phenyl]carbonyl}piperidin-3-yl]oxy}pyridine] | 16 | –
Cc1ccnc(O[C@@H]2CC[C@@H](C)N(C(=O)c3ccsc3-c3ncccn3)C2)c1 [Example 21, 2-[3-({(2R,5R)-2-methyl-5-[(4-methylpyridin-2-yl)oxy]piperidin-1-yl}carbonyl)thiophen-2-yl]pyrimidine] | 69 | 2110
Cc1ccnc(O[C@@H]2CC[C@@H](C)N(C(=O)c3ccc(F)cc3-c3ncccn3)C2)c1 [Example 20, 2-[5-fluoro-2-({(2R,5R)-2-methyl-5-[(4-methylpyridin-2-yl)oxy]piperidin-1-yl}carbonyl)phenyl]pyrimidine] | 42 | 1580
Cc1ccnc(O[C@@H]2CC[C@@H](C)N(C(=O)c3sccc3-c3ncccn3)C2)c1 [Example 22, 2-[2-({(2R,5R)-2-methyl-5-[(4-methylpyridin-2-yl)oxy]piperidin-1-yl}carbonyl)thiophen-3-yl]pyrimidine] | 17 | 791
Cc1ccnc(O[C@@H]2CC[C@@H](C)N(C(=O)c3ncccc3-c3noc(C)n3)C2)c1 [Example 18, 2-({(2R,5R)-2-methyl-5-[(4-methylpyridin-2-yl)oxy]piperidin-1-yl}carbonyl)-3-(5-methyl-1,2,4-oxadiazol-3-yl)pyridine] | 106 | 7030
Cc1ccnc(O[C@@H]2CC[C@@H](C)N(C(=O)c3cccc(F)c3-n3nccn3)C2)c1 [Example 13, 2-{[(3R,6R)-1-{[3-fluoro-2-(2H-1,2,3-triazol-2-yl)phenyl]carbonyl}-6-methylpiperidin-3-yl]oxy}-4-methylpyridine] | 26 | 964
Cc1ccnc(O[C@@H]2CC[C@@H](C)N(C(=O)c3ccccc3CS(C)(=O)=O)C2)c1 [Example 14, 4-methyl-2-{[(3R,6R)-6-methyl-1-({2-[(methylsulfonyl)methyl]phenyl}carbonyl)piperidin-3-yl]oxy}pyridine] | 73 | > 10000
Cc1ccnc(O[C@@H]2CC[C@@H](C)N(C(=O)c3ncccc3-n3nccn3)C2)c1 [Example 9, 2-({(2R,5R)-2-methyl-5-[(4-methylpyridin-2-yl)oxy]piperidin-1-yl}carbonyl)-3-(2H-1,2,3-triazol-2-yl)pyridine] | 45 | 1770
Cc1ccnc(O[C@@H]2CC[C@@H](C)N(C(=O)c3ccsc3-n3nccn3)C2)c1 [Example 3, 4-methyl-2-{[(3R,6R)-6-methyl-1-{[2-(2H-1,2,3-triazol-2-yl)thiophen-3-yl]carbonyl}piperidin-3-yl]oxy}pyridine] | 44 | 1670
Cc1ccnc(O[C@@H]2CC[C@@H](C)N(C(=O)c3c(F)cccc3-n3nccn3)C2)c1 [Example 4, 2-{[(3R,6R)-1-{[2-fluoro-6-(2H-1,2,3-triazol-2-yl)phenyl]carbonyl}-6-methylpiperidin-3-yl]oxy}-4-methylpyridine] | 28 | 875
Cc1ccnc(O[C@@H]2CC[C@@H](C)N(C(=O)c3ccc(F)cc3-c3nc(C)no3)C2)c1 [Example 12, 2-{[(3R,6R)-1-{[4-fluoro-2-(3-methyl-1,2,4-oxadiazol-5-yl)phenyl]carbonyl}-6-methylpiperidin-3-yl]oxy}-4-methylpyridine] | 299 | 9510
